{"source": "paper PMC8916643", "about": "“Molecular physiology of pumiliotoxin sequestration in a poison frog” (PLoS ONE, 2022)", "key": {"panel of 165 GPCRs": {"tested_on": "panel of 165 GPCRs", "assay": "gpcrMAX PathHunter beta-arrestin GPCR panel (agonist and antagonist)", "type": "cell-based, human", "details": "10 uM; 165 GPCRs tested", "procedure": "Assays for human CYP activity (CYP phenotyping), CYP2D6 metabolite discovery (metID), ion channel inhibition (CiPA), and G-protein coupled receptor (GPCR) activity (gpcrMAX) were performed through Eurofins Discovery Services (Eurofins Panlabs Inc, St. Charles MO, USA). In the CYP phenotyping panel, human recombinant CYP1A2, CYP2B6, CYP2C8, CYP2C9, CYP2C19, CYP2D6, and CYP3A4 were included in the assay. A concentration of 1E-07 M of PTX 251D was tested, and the percent compound remaining was quantified at 0, 15, 30, 45, and 60 minutes using HPLC-MS/MS. As a positive control, a reference compound was used for each CYP tested (see S1 File for results). In the CYP2D6 metabolism assay, human recombinant CYP2D6 was incubated with an initial concentration of 10 μM and metabolites were quantified after 90 minutes using LC-MS/MS. Two replicates were used for the CYP phenotyping panel and one replicate was used for CYP2D6 metabolite assay. The CiPA assay was a cell-based QPatch on voltage-gated sodium channel NaV1.5 (peak and late/agonist), voltage-gated potassium channels Kv4.3/KChIP2, hERG, KCNQ1/minK, Kir2.1, and voltage-gated calcium channel Cav1.2. The concentrations of PTX 251D assayed were 3, 10, and 30 μM, and a reference compound for each channel was used (see S1 File for results and individual QPatch parameters). […]"}, "[1]": {"tested_on": "gene expression in intestines, liver, and skin", "assay": "RNA sequencing, differential gene expression after PTX 251D feeding", "type": "in vivo, Dendrobates tinctorius", "excerpt": "Lab-reared (non-toxic) Dendrobates tinctorius were housed in terraria with live plants, a water pool, and a shelter. Ten adult females were size-matched, randomly assigned to control or experimental groups (N = 5 per group), and then housed individually. To measure the specific effects of PTX 251D compared to a background toxicity, the control group was fed 0.01% DHQ (Sigma-Aldrich, St. Louis, USA) in a solution of 1% EtOH and the experimental group was fed a solution of 0.01% DHQ and 0.01% PTX 251D (PepTech, Burlington, MA, USA) in a solution of 1% EtOH in water. Each frog was fed 15 μL each day for five days by pipetting the solution directly into the mouth between 10am-12pm. […]\nRNA extraction followed the Trizol (Thermo Fisher Scientific, Waltham, MA, USA) protocol outlined in Caty et al. 2019 [16] and according to the manufacturer’s instructions. […] Libraries were quantified with quantitative PCR (NEBnext Library quantification kit, New England Biolabs, Ipswich, USA) and a Agilent Bioanalyzer High Sensitivity DNA chip, both according to manufacturer’s instructions. All libraries were pooled at equimolar amounts and were sequenced on four lanes of an Illumina HiSeq 4000 machine to obtain 150 bp paired-end reads. […]"}, "KCNQ1/minK": {"molecular_target": "T1, KCNQ1/minK (Homo sapiens, UniProt P51787)", "T1 construct": "Eurofins Discovery Services (Eurofins Panlabs Inc) ran the assay", "T1 sequence (P51787 whole entry)": "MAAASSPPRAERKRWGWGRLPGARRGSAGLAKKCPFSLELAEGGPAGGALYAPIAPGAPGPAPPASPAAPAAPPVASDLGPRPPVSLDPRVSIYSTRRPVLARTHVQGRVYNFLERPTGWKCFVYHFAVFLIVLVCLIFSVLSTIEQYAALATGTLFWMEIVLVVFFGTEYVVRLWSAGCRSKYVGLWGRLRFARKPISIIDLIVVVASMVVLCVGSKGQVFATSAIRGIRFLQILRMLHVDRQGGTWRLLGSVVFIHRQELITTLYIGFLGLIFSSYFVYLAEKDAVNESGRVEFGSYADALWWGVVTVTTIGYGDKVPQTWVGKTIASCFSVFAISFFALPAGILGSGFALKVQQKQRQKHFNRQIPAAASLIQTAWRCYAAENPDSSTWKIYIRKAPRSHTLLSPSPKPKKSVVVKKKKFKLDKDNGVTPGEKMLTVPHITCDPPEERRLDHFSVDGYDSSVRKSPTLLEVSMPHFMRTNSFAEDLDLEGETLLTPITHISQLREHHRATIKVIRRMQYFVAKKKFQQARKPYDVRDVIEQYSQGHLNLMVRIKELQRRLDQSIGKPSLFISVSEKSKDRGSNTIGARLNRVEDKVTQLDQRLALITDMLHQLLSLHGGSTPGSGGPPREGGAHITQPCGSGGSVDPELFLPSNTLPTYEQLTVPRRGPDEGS", "assay": "CiPA cell-based QPatch ion channel inhibition", "details": "maximum concentration of 30 uM", "procedure": "(§1) Assays for human CYP activity (CYP phenotyping), CYP2D6 metabolite discovery (metID), ion channel inhibition (CiPA), and G-protein coupled receptor (GPCR) activity (gpcrMAX) were performed through Eurofins Discovery Services (Eurofins Panlabs Inc, St. Charles MO, USA). In the CYP phenotyping panel, human recombinant CYP1A2, CYP2B6, CYP2C8, CYP2C9, CYP2C19, CYP2D6, and CYP3A4 were included in the assay. A concentration of 1E-07 M of PTX 251D was tested, and the percent compound remaining was quantified at 0, 15, 30, 45, and 60 minutes using HPLC-MS/MS. As a positive control, a reference compound was used for each CYP tested (see S1 File for results). In the CYP2D6 metabolism assay, human recombinant CYP2D6 was incubated with an initial concentration of 10 μM and metabolites were quantified after 90 minutes using LC-MS/MS. Two replicates were used for the CYP phenotyping panel and one replicate was used for CYP2D6 metabolite assay. The CiPA assay was a cell-based QPatch on voltage-gated sodium channel NaV1.5 (peak and late/agonist), voltage-gated potassium channels Kv4.3/KChIP2, hERG, KCNQ1/minK, Kir2.1, and voltage-gated calcium channel Cav1.2. The concentrations of PTX 251D assayed were 3, 10, and 30 μM, and a reference compound for each channel was used (see S1 File for results and individual QPatch parameters). In the gpcrMAX assay a panel of 165 GPCRs was tested through the DiscoverX PathHunter beta-arrestin enzyme fragment complementation technology, and a concentration of 10 μM PTX 251D was tested for both agonist and antagonist activity along with a reference compound for each GPCR (see S1 File for results)."}, "Kir2.1": {"molecular_target": "T2, Kir2.1 (Homo sapiens, UniProt P63252)", "T2 construct": "Eurofins Discovery Services (Eurofins Panlabs Inc) ran the assay", "T2 sequence (P63252 1-427)": "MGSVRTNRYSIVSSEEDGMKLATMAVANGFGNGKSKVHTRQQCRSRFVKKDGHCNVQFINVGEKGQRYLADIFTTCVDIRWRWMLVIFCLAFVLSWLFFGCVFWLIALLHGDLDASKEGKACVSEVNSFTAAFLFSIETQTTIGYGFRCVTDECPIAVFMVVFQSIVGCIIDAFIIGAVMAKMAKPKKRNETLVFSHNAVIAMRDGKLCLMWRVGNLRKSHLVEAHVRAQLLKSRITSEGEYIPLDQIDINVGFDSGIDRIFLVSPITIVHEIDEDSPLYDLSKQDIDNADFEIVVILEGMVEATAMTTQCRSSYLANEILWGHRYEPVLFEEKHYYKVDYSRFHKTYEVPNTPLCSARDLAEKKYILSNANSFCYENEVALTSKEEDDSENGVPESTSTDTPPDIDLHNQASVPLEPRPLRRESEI", "assay": "CiPA cell-based QPatch ion channel inhibition", "details": "maximum concentration of 30 uM", "procedure": "as §1"}}}
{"smiles": "CCCCC(C)C=C1CN2CCCC2C(C)(O)C1", "note": "(centres unmarked) [PTX 251D, pumiliotoxin (PTX 251D)]", "values": [{"measurement": "inhibition or activation of GPCRs", "setting": "panel of 165 GPCRs", "result": "no significant inhibition or activation"}, {"measurement": "expression of CYP2D6-like contig", "setting": "[1]; intestines of frogs fed PTX 251D", "result": "upregulated"}, {"measurement": "CYP3A29 expression log2FC", "setting": "[1]; intestines, DHQ+PTX vs DHQ", "result": 5.72}, {"measurement": "inhibitory effect on KCNQ1/minK", "setting": "KCNQ1/minK", "result": "no inhibitory effect"}, {"measurement": "inhibitory effect on Kir2.1", "setting": "Kir2.1", "result": "no inhibitory effect"}]}
